Tested on: yeast genes (expressed mRNA)
Assay: DNA chip measurement of expressed mRNA of yeast genes after culture with a toxic chemical substance
Assay type: cell-based, Saccharomyces cerevisiae S288C
Method in brief: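 Yeast S288C, YPD 25° C; toxicant at log phase, 2 h, sublethal growth-inhibiting conc.; no-chemical control. Hot SDS/acetate RNA extraction, oligo-dT mRNA, Cy3/Cy5-dUTP RT. Whole-genome chip, 65° C >12 h. Readout: treated/control intensity ratio, ≥2 significant.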

SMILES: COc1cc(CNC(=O)CCCCC=CC(C)C)ccc1O [(12), 8-Methyl-N-vanillyl-6-nonenamide]
- The level of expressed mRNA in the presence of chemical substance/The level of expressed mRNA in the absence of chemical substance (yeast gene YFL024C, cultured two hours with substance): 0.8
- The level of expressed mRNA in the presence of chemical substance/The level of expressed mRNA in the absence of chemical substance (yeast gene YFL032W, cultured two hours with substance): 0.7
- The level of expressed mRNA in the presence of chemical substance/The level of expressed mRNA in the absence of chemical substance (yeast gene YGL001C): 0.9
- The level of expressed mRNA in the presence of chemical substance/The level of expressed mRNA in the absence of chemical substance (yeast gene YGL037C, cultured two hours with substance): 0.8
- The level of expressed mRNA in the presence of chemical substance/The level of expressed mRNA in the absence of chemical substance (yeast gene YGL047W, cultured two hours with substance): 1.1
- The level of expressed mRNA in the presence of chemical substance/The level of expressed mRNA in the absence of chemical substance (yeast gene YGL053W, cultured two hours with substance): 1.3
- The level of expressed mRNA in the presence of chemical substance/The level of expressed mRNA in the absence of chemical substance (yeast gene YGL062W, cultured for two hours with substance): 1.6
- The level of expressed mRNA in the presence of chemical substance/The level of expressed mRNA in the absence of chemical substance (yeast gene YGL104C): 1.1
- The level of expressed mRNA in the presence of chemical substance/The level of expressed mRNA in the absence of chemical substance (yeast gene YGL115W (stress protein genes)): 0.9
- The level of expressed mRNA in the presence of chemical substance/The level of expressed mRNA in the absence of chemical substance (yeast gene YGL117W, cultured two hours with substance): 1.5
- The level of expressed mRNA in the presence of chemical substance/The level of expressed mRNA in the absence of chemical substance (yeast gene YGL121C, cultured two hours with substance): 1.6
- The level of expressed mRNA in the presence of chemical substance/The level of expressed mRNA in the absence of chemical substance (yeast gene YGL136C, cultured two hours with substance): 1.1
- The level of expressed mRNA in the presence of chemical substance/The level of expressed mRNA in the absence of chemical substance (yeast gene YGL199C, cultured two hours with substance): 0.9
- The level of expressed mRNA in the presence of chemical substance/The level of expressed mRNA in the absence of chemical substance (yeast gene YGL209W): 1.3
- The level of expressed mRNA in the presence of chemical substance/The level of expressed mRNA in the absence of chemical substance (yeast gene YGR035C, cultured two hours with substance): 3.3
- The level of expressed mRNA in the presence of chemical substance/The level of expressed mRNA in the absence of chemical substance (yeast gene YGR055W, metabolism protein genes): 0.9
- The level of expressed mRNA in the presence of chemical substance/The level of expressed mRNA in the absence of chemical substance (yeast gene YGR101W, cultured two hours with substance): 1.0
- The level of expressed mRNA in the presence of chemical substance/The level of expressed mRNA in the absence of chemical substance (yeast gene YGR110W, cultured two hours with substance): 1.4
- The level of expressed mRNA in the presence of chemical substance/The level of expressed mRNA in the absence of chemical substance (yeast gene YGR130C, cultured two hours with substance): 0.7
- The level of expressed mRNA in the presence of chemical substance/The level of expressed mRNA in the absence of chemical substance (yeast gene YGR142W, cultured two hours with substance): 2.0
- The level of expressed mRNA in the presence of chemical substance/The level of expressed mRNA in the absence of chemical substance (yeast gene YGR146C, cultured two hours with substance): 1.4
- The level of expressed mRNA in the presence of chemical substance/The level of expressed mRNA in the absence of chemical substance (yeast gene YGR154C, cultured two hours with substance): 0.9
- The level of expressed mRNA in the presence of chemical substance/The level of expressed mRNA in the absence of chemical substance (yeast gene YGR221C, cultured two hours with substance): 1.6
- The level of expressed mRNA in the presence of chemical substance/The level of expressed mRNA in the absence of chemical substance (yeast gene YGR281W (transport facilitation protein gene)): 2.4
- The level of expressed mRNA in the presence of chemical substance/The level of expressed mRNA in the absence of chemical substance (yeast gene YGR282C): 1.3
- The level of expressed mRNA in the presence of chemical substance/The level of expressed mRNA in the absence of chemical substance (yeast gene YGR284C, cultured two hours with substance): 2.1
- The level of expressed mRNA in the presence of chemical substance/The level of expressed mRNA in the absence of chemical substance (yeast gene YHL038C, mitochondria-located protein gene, cultured two hours with substance): 1.6
- The level of expressed mRNA in the presence of chemical substance/The level of expressed mRNA in the absence of chemical substance (yeast gene YHL047C (transport facilitation protein gene)): 2.6
- The level of expressed mRNA in the presence of chemical substance/The level of expressed mRNA in the absence of chemical substance (yeast gene YHR029C, cultured two hours with substance): 1.5
- The level of expressed mRNA in the presence of chemical substance/The level of expressed mRNA in the absence of chemical substance (yeast gene YHR054C, cultured two hours with substance): 3.6
- The level of expressed mRNA in the presence of chemical substance/The level of expressed mRNA in the absence of chemical substance (yeast gene YHR111W, metabolism protein genes): 0.9
- The level of expressed mRNA in the presence of chemical substance/The level of expressed mRNA in the absence of chemical substance (yeast gene YHR138C, cultured two hours with substance): 1.8
- The level of expressed mRNA in the presence of chemical substance/The level of expressed mRNA in the absence of chemical substance (yeast gene YHR179W, cultured for two hours with substance): 2.2
- The level of expressed mRNA in the presence of chemical substance/The level of expressed mRNA in the absence of chemical substance (yeast gene YHR199C, cultured two hours with substance): 1.1
- The level of expressed mRNA in the presence of chemical substance/The level of expressed mRNA in the absence of chemical substance (yeast gene YHR209W, cultured two hours with substance): 1.0
- The level of expressed mRNA in the presence of chemical substance/The level of expressed mRNA in the absence of chemical substance (yeast gene YIL023C, cultured two hours with substance): 0.9
- The level of expressed mRNA in the presence of chemical substance/The level of expressed mRNA in the absence of chemical substance (yeast gene YIL024C, cultured two hours with substance): 0.7
- The level of expressed mRNA in the presence of chemical substance/The level of expressed mRNA in the absence of chemical substance (yeast gene YIL041W, cultured two hours with substance): 1.0
- The level of expressed mRNA in the presence of chemical substance/The level of expressed mRNA in the absence of chemical substance (yeast gene YIL077C, cultured two hours with the substance): 1.6
- The level of expressed mRNA in the presence of chemical substance/The level of expressed mRNA in the absence of chemical substance (yeast gene YIL087C, cultured two hours with substance): 1.1
- The level of expressed mRNA in the presence of chemical substance/The level of expressed mRNA in the absence of chemical substance (yeast gene YIL117C, cultured two hours with substance): 1.4
- The level of expressed mRNA in the presence of chemical substance/The level of expressed mRNA in the absence of chemical substance (yeast gene YIL154C): 1.1
- The level of expressed mRNA in the presence of chemical substance/The level of expressed mRNA in the absence of chemical substance (yeast gene YIL167W): 0.7
- The level of expressed mRNA in the presence of chemical substance/The level of expressed mRNA in the absence of chemical substance (yeast gene YJL020C, cultured two hours with substance): 0.7
- The level of expressed mRNA in the presence of chemical substance/The level of expressed mRNA in the absence of chemical substance (yeast gene YJL052W, cultured for two hours with substance): 2.4
- The level of expressed mRNA in the presence of chemical substance/The level of expressed mRNA in the absence of chemical substance (yeast gene YJL057C, cultured two hours with substance): 1.0
- The level of expressed mRNA in the presence of chemical substance/The level of expressed mRNA in the absence of chemical substance (yeast gene YJL066C, cultured two hours with substance): 1.0
- The level of expressed mRNA in the presence of chemical substance/The level of expressed mRNA in the absence of chemical substance (yeast gene YJL082W, cultured two hours with substance): 1.3
- The level of expressed mRNA in the presence of chemical substance/The level of expressed mRNA in the absence of chemical substance (yeast gene YJL108C, cultured two hours with substance): 0.4
- The level of expressed mRNA in the presence of chemical substance/The level of expressed mRNA in the absence of chemical substance (yeast gene YJL149W, cultured two hours with substance): 1.1

— patent publication US20100041089A1, “IMPROVED METHOD FOR DETECTING CHEMICAL […]” (priority 2006, published 2010)
